Test results published in US9216173B2, “2-Pyridyl carboxamide-containing spleen tyrosine kinase (SYK) inhibitors” (Merck Sharp & Dohme Corp., priority 2011, dated 2015).

What follows are compounds tested against T1, recombinant human GST-SYK (Homo sapiens, UniProt P43405) (assay: Homogeneous Time-Resolved Fluorescence (HTRF) assay for the recombinant human Syk enzyme). Conditions: GST-hSYK 5 pM, ATP 25 μM, 10-dose titration 10 μM to 0.508 nM; read-out: IC50.
T1 construct: purchased Carna Biosciences 08-176
Assay type: biochemical
Protocol: Homogeneous Time-Resolved Fluorescence (HTRF) Assay for the Recombinant Human Syk Enzyme
A recombinant GST-hSYK fusion protein was used to measure potency of compounds to inhibit human Syk activity. […] Final volume of the reaction was 10 μL. Phosphorylation of the peptide was allowed to proceed for 45 minutes at room temperature. To quench the reaction and detect the phosphorylated product, 2 nM of a Europium-anti-phosphotyrosine antibody (Perkin Elmer #AD0161) and 70 nM SA-APC (Perkin-Elmer #CR130-100) were added together in 15 mM Tris pH 7.5, 40 mM EDTA, 0.01% tween 20. Final volume of the quenching solution was 10 μL. The resulting HTRF signal was measured after 30 minutes on an EnVision (Perkin-Elmer) reader using a time-resolved fluorescence protocol.
Work on `Cn1ccc(Nc2cc(N[C@@H]3CS(=O)(=O)CC[C@@H]3N)cnc2C(N)=O)n1` (relative stereo) [Example 1.89, rel-5-{[(3S,4S)-4-amino-1,1-dioxidotetrahydro-2H-thiopyran-3-yl]amino}-3-[(1-methyl-1H-pyrazol-3-yl)amino]pyridine-2-carboxamide] yielded an IC50 of 340 nM.
For `Cn1ccc(Nc2cc(N[C@H]3[C@@H](N)CCCC3(F)F)cnc2C(N)=O)n1` [Example 1.86, 5-{[(1S,6S)-6-amino-2,2-difluorocyclohexyl]amino}-3-[(1-methyl-1H-pyrazol-3-yl)amino]pyridine-2-carboxamide], the IC50 was 63 nM.

Same assay, conditions: GST-hSYK 5 pM, ATP 25 μM, 10-dose titration 10 μM to 0.508 nM; read-out: rhSYK Activity (IC50 rating)
In the case of `Cc1cc(C)nc(Nc2cc(NC3CC(N)C3)cnc2C(N)=O)c1` (stereo not shown) [Example 2.15, 5-[(3-aminocyclobutyl)amino]-3-[(4,6-dimethylpyridin-2-yl)amino]pyridine-2-carboxamide], the IC50 is reported as 10 to 100 nM.
Compound `Cc1cc(C)nc(Nc2cc(NC(=O)CN)cnc2C(N)=O)c1` [Example 10, 3-[(4,6-dimethylpyridin-2-yl)amino]-5-(glycylamino)pyridine-2-carboxamide] has an IC50 of 100 to 1000 nM.
With `COc1cc(Nc2cc(N[C@@H]3CCCC[C@@H]3N)cnc2C(N)=O)nc(OC)n1` [Example 1.124, 5-{[(1R,2S)-2-aminocyclohexyl]amino}-3-[(2,6-dimethoxypyrimidin-4-yl)amino]pyridine-2-carboxamide] the IC50 was less than 10 nM.
Compound `NC(=O)c1ncc(N[C@@H]2CCCC[C@@H]2N)cc1Nc1cccc(CN2CCNCC2)n1` [Example 8, 5-{[(1R,2S)-2-aminocyclohexyl]amino}-3-{[6-(piperazin-1-ylmethyl)pyridin-2-yl]amino}pyridine-2-carboxamide] has an IC50 of 100 to 1000 nM.
Compound `Cc1nc(Nc2cc(N[C@@H]3CCCC[C@@H]3N)cnc2C(N)=O)ccc1-c1ccc(-c2nccn2C)cc1` [Example 3.29, 5-{[(1R,2S)-2-aminocyclohexyl]amino}-3-({6-methyl-5-[4-(1-methyl-1H-imidazol-2-yl)phenyl]pyridin-2-yl}amino)pyridine-2-carboxamide] has an IC50 of less than 10 nM.
In the case of `Cc1cc(C)nc(Nc2cc(N[C@@H]3CCC[C@@H]3N)cnc2C(N)=O)c1` (relative stereo) [Example 1.18, rel-5-{[(1R,2S)-2-aminocyclopentyl]amino}-3-[(4,6-dimethylpyridin-2-yl)amino]pyridine-2-carboxamide], the IC50 is reported as less than 10 nM.
`Cc1cc(Nc2cc(N[C@@H]3CCCC[C@@H]3N)cnc2C(N)=O)nc(C)n1` [Example 1.125, 5-{[(1R,2S)-2-aminocyclohexyl]amino}-3-[(2,6-dimethylpyrimidin-4-yl)amino]pyridine-2-carboxamide] was tested, and the IC50 was less than 10 nM.
Work on `NC(=O)c1ncc(N[C@@H]2CCCC[C@@H]2N)cc1Nc1ccc2ccccc2n1` [Example 1.9, 5-{[(1R,2S)-2-aminocyclohexyl]amino}-3-(quinolin-2-ylamino)pyridine-2-carboxamide] yielded an IC50 of less than 10 nM.
`Cc1nc(Nc2cc(N[C@@H]3CCCC[C@@H]3N)cnc2C(N)=O)ccc1-c1cccc(-n2nccn2)c1` [Example 3.20, 5-{[(1R,2S)-2-aminocyclohexyl]amino}-3-({6-methyl-5-[3-(2H-1,2,3-triazol-2-yl)phenyl]pyridin-2-yl}amino)pyridine-2-carboxamide] showed an IC50 of less than 10 nM.
With `Cc1ccc(-n2ccc(Nc3cc(N[C@@H]4CCCC[C@@H]4N)cnc3C(N)=O)n2)cc1C` [Example 1.66, 5-{[(1R,2S)-2-aminocyclohexyl]amino}-3-{[1-(3,4-dimethylphenyl)-1H-pyrazol-3-yl]amino}pyridine-2-carboxamide] the IC50 was less than 10 nM.
`CSCC(N)CNc1cnc(C(N)=O)c(Nc2cc(C)cc(C)n2)c1` (stereo not shown) [Example 2.8, 5-{[2-amino-3-(methylsulfanyl)propyl]amino}-3-[(4,6-dimethylpyridin-2-yl)amino]pyridine-2-carboxamide] gave an IC50 of less than 10 nM.
For `COc1ccc(-c2ccc(Nc3cc(N[C@@H]4CCCC[C@@H]4N)cnc3C(N)=O)nc2C)cn1` [Example 3.22, 5-{[(1R,2S)-2-aminocyclohexyl]amino}-3-[(6′-methoxy-2-methyl-3,3′-bipyridin-6-yl)amino]pyridine-2-carboxamide], the IC50 was less than 10 nM.
`Cc1nc(Nc2cc(N[C@@H]3CCCC[C@@H]3N)cnc2C(N)=O)ccc1C(=O)O` [Example 16, 6-[(5-{[(1R,2S)-2-aminocyclohexyl]amino}-2-carbamoylpyridin-3-yl)amino]-2-methylpyridine-3-carboxylic acid] showed an IC50 of less than 10 nM.
In the case of `CCc1cccc(Nc2cc(N[C@@H]3CCCC[C@@H]3N)cnc2C(N)=O)n1` [Example 13, 5-{[(1R,2S)-2-aminocyclohexyl]amino}-3-[(6-ethylpyridin-2-yl)amino]pyridine-2-carboxamide], the IC50 is reported as less than 10 nM.
Compound `NC(=O)c1ncc(N[C@@H]2CS(=O)(=O)CC[C@@H]2N)cc1Nc1ccn(-c2ccc(F)cc2)n1` (relative stereo) [Example 1.90, rel-5-{[(3S,4S)-4-amino-1,1-dioxidotetrahydro-2H-thiopyran-3-yl]amino}-3-{[1-(4 fluorophenyl)-1H-pyrazol-3-yl]amino}pyridine-2-carboxamide] has an IC50 of less than 10 nM.
Work on `Cc1nc(Cl)cc(Nc2cc(N[C@@H]3CCCC[C@@H]3N)cnc2C(N)=O)n1` [Example 1.127, 5-{[(1R,2S)-2-aminocyclohexyl]amino}-3-[(6-chloro-2-methylpyrimidin-4-yl)amino]pyridine-2-carboxamide] yielded an IC50 of less than 10 nM.
`Cc1cc(-n2nccn2)cc(Nc2cc(N[C@@H]3CCCC[C@@H]3N)cnc2C(N)=O)n1` [Example 1.76, 5-{[(1R,2S)-2-aminocyclohexyl]amino}-3-{[6-methyl-4-(2H-1,2,3-triazol-2-yl)pyridin-2-yl]amino}pyridine-2-carboxamide] showed an IC50 of less than 10 nM.
In the case of `Cc1nc(Nc2cc(N[C@@H]3CCCC[C@@H]3N)cnc2C(N)=O)ccc1C(=O)N(C)C` [Example 17, 5-{[(1R,2S)-2-aminocyclohexyl]amino}-3-{[5-(dimethylcarbamoyl)-6-methylpyridin-2-yl]amino}pyridine-2-carboxamide], the IC50 is reported as 10 to 100 nM.
In the case of `Cn1ccc(Nc2cc(N[C@@H]3CS(=O)(=O)CC[C@@H]3N)cnc2C(N)=O)n1` (relative stereo) [Example 1.89, rel-5-{[(3S,4S)-4-amino-1,1-dioxidotetrahydro-2H-thiopyran-3-yl]amino}-3-[(1-methyl-1H-pyrazol-3-yl)amino]pyridine-2-carboxamide], the IC50 is reported as 100 to 1000 nM.
With `C[C@H](N)CNc1cnc(C(N)=O)c(Nc2ccn(C)n2)c1` [Example 1.92, 5-{[(2S)-2-aminopropyl]amino}-3-[(1-methyl-1H-pyrazol-3-yl)amino]pyridine-2-carboxamide] the IC50 was 10 to 100 nM.
`COc1ccc(Nc2cc(N[C@@H]3CCCC[C@@H]3N)cnc2C(N)=O)nc1C` [Example 1.111, 5-{[(1R,2S)-2-aminocyclohexyl]amino}-3-[(5-methoxy-6-methylpyridin-2-yl)amino]pyridine-2-carboxamide] was tested, and the IC50 was less than 10 nM.
`Cc1cncc(Nc2cc(N[C@@H]3CCCC[C@@H]3N)cnc2C(N)=O)n1` [Example 1.121, 5-{[(1R,2S)-2-aminocyclohexyl]amino}-3-[(6-methylpyrazin-2-yl)amino]pyridine-2-carboxamide] showed an IC50 of less than 10 nM.
`Cn1ccc(Nc2cc(N[C@H]3[C@@H](N)CCCC3(F)F)cnc2C(N)=O)n1` [Example 1.86, 5-{[(1S,6S)-6-amino-2,2-difluorocyclohexyl]amino}-3-[(1-methyl-1H-pyrazol-3-yl)amino]pyridine-2-carboxamide] gave an IC50 of 10 to 100 nM.
`COC[C@H](N)CNc1cnc(C(N)=O)c(Nc2ccn(C)n2)c1` [Example 1.98, 5-{[(2R)-2-amino-3-methoxypropyl]amino}-3-[(1-methyl-1H-pyrazol-3-yl)amino]pyridine-2-carboxamide] gave an IC50 of 100 to 1000 nM.
With `Cc1cc(C)nc(Nc2cc(N[C@@H]3CCOC[C@@H]3N)cnc2C(N)=O)c1` [Example 1.130, 5-{[(3R,4R)-3-aminotetrahydro-2H-pyran-4-yl]amino}-3-[(4,6-dimethylpyridin-2-yl)amino]pyridine-2-carboxamide] the IC50 was less than 10 nM.
`NC(=O)c1ncc(N[C@@H]2CCCC[C@@H]2N)cc1Nc1cccc(-c2ccc3c(c2)OCCO3)n1` [Example 1.16, 5-{[(1R,2S)-2-aminocyclohexyl]amino}-3-{[6-(2,3-dihydro-1,4-benzodioxin-6-yl)pyridin-2-yl]amino}pyridine-2-carboxamide] gave an IC50 of less than 10 nM.
Compound `Cc1cc(C)nc(Nc2cc(NC(C)CN)cnc2C(N)=O)c1` (stereo not shown) [Example 1.30, 5-[(2-amino-1-methylethyl)amino]-3-[(4,6-dimethylpyridin-2-yl)amino]pyridine-2-carboxamide] has an IC50 of less than 10 nM.
In the case of `Cc1cc(Nc2cc(N[C@@H]3CCCC[C@@H]3N)cnc2C(N)=O)nc(-c2cnn(C)c2)c1` [Example 1.110, 5-{[(1R,2S)-2-aminocyclohexyl]amino}-3-{[4-methyl-6-(1-methyl-1H-pyrazol-4-yl)pyridin-2-yl]amino}pyridine-2-carboxamide], the IC50 is reported as less than 10 nM.
With `Cc1cc(Nc2cc(N[C@@H]3CCCC[C@@H]3N)cnc2C(N)=O)nc(-n2nccn2)c1` [Example 1.102, 5-{[(1R,2S)-2-aminocyclohexyl]amino}-3-{[4-methyl-6-(2H-1,2,3-triazol-2-yl)pyridin-2-yl]amino}pyridine-2-carboxamide] the IC50 was less than 10 nM.
`COc1cc(C)nc(Nc2cc(N[C@@H]3CCOC[C@@H]3N)cnc2C(N)=O)c1` [Example 1.131, 5-{[(3R,4R)-3-aminotetrahydro-2H-pyran-4-yl]amino}-3-[(4-methoxy-6-methylpyridin-2-yl)amino]pyridine-2-carboxamide] showed an IC50 of less than 10 nM.
With `Cc1nc(Nc2cc(N[C@@H]3CCCC[C@@H]3N)cnc2C(N)=O)ccc1-c1ccc(C)c2ncccc12` [Example 3.32, 5-{[(1R,2S)-2-aminocyclohexyl]amino}-3-{[6-methyl-5-(8-methylquinolin-5-yl)pyridin-2-yl]amino}pyridine-2-carboxamide] the IC50 was less than 10 nM.
Work on `CC(=O)NCC(N)CNc1cnc(C(N)=O)c(Nc2cc(C)cc(C)n2)c1` (stereo not shown) [Example 6.1, 5-{[3-(acetylamino)-2-aminopropyl]amino}-3-[(4,6-dimethylpyridin-2-yl)amino]pyridine-2-carboxamide] yielded an IC50 of 10 to 100 nM.
